# Several values for one entry are separate records, joined by “and”; a condition that tells them apart may be missing. Equal values may be shown once.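 48-hour exposure; five concentrations; linearly interpolated endpoints. Here, GI50 denotes the concentration required for 50% inhibition of growth. At the TGI there is no net growth.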
# Columns and labels:
# Experiment in all cases: growth of human tumour cells (NCI), 48 h
# [1] = system: A498 renal
# [2] = system: A549 NSCLC
# [3] = system: COLO 205 colon
# [4] = system: KM12 colon
# [5] = system: MALME-3M melanoma
# [6] = system: OVCAR-3 ovarian
# [7] = system: RPMI-8226 leukemia
# [8] = system: SK-MEL-5 melanoma
# [9] = system: SW-620 colon
# [10] = system: UACC-257 melanoma
Compound,TGI [1],TGI [2],TGI [3],TGI [4],TGI [5],TGI [6],TGI [7],TGI [8],TGI [9],TGI [10],GI50 [1],GI50 [2],GI50 [3],GI50 [4],GI50 [5],GI50 [6],GI50 [7],GI50 [8],GI50 [9],GI50 [10]
CCCCN(CCCC)C(=O)C(=O)CC(=O)/C=C/c1ccccc1,> 100 µM,> 100 µM,> 100 µM,> 100 µM,> 100 µM,> 100 µM,> 100 µM,> 100 µM,> 100 µM,> 100 µM,,,,,,,,,,
NC(=S)N/N=C\c1nccc2c(C(F)(F)C(F)(F)C(F)(F)F)cccc12,2.1 µM,1.1 µM,1.9 µM,8.05 µM,1.43 µM,2.22 µM,,0.563 µM,24.3 µM,0.575 µM,0.464 µM,0.0978 µM,0.0327 µM,0.0825 µM,0.189 µM,0.0347 µM,0.264 µM,0.0996 µM,0.0538 µM,0.12 µM
COc1cc(CC2CC(c3ccc4c(c3)OCO4)OC2=O)cc(OC)c1OC (centres undefined),> 100 µM,> 100 µM,> 100 µM,> 100 µM,> 100 µM,> 100 µM,> 100 µM,> 100 µM,> 100 µM,> 100 µM,,,,,,,,,,
Cc1cc(Cl)ccc1NC(=O)NC(C)(C)COC(=O)Nc1cccc(Cl)c1,21.8 µM,66.4 µM,20.2 µM,17.6 µM,50.3 µM,12.7 µM,15.3 µM,25 µM,> 100 µM,42.5 µM,2.82 µM,5.05 µM,7.18 µM,3.78 µM,9.6 µM,3.78 µM,3.26 µM,6.7 µM,7.45 µM,8.23 µM
O=[N+]([O-])c1ccc(NC(=S)N/N=C(\c2ccccc2)c2ccccn2)cc1,2.71 µM and 3.21 µM,3.37 µM and 3.96 µM,2.52 µM and 3.88 µM,3.35 µM and 4.12 µM,3.52 µM,1.36 µM and 2.76 µM,5.6 µM and > 27 µM,2.53 µM and 2.74 µM,1.93 µM and 2.35 µM,2.06 µM and 3.26 µM,1.41 µM,,0.0423 µM,,,,1.2 µM,,0.0303 µM,0.0225 µM
CC(=O)OCC(OC(C)=O)C(OC(C)=O)C(OC(C)=O)C(=O)CNn1c(-c2ccccc2Cl)nc2ccc(Br)cc2c1=O (centres undefined),> 100 µM,> 100 µM,> 100 µM,> 100 µM,> 100 µM,> 100 µM,> 100 µM,> 100 µM,> 100 µM,> 100 µM,,,,,,,,,,
O=C(Nc1cccc([N+](=O)[O-])c1)c1cc2ccccc2cc1O,6.19 µM,> 100 µM,3.44 µM,6.44 µM,2.26 µM,7.33 µM,1.06 µM,3.56 µM,17 µM,5.23 µM,1.41 µM,2.84 µM,1.88 µM,2.41 µM,0.376 µM,0.783 µM,0.146 µM,1.14 µM,2.72 µM,0.881 µM
CN(C)CCNc1c2c(c(NCCN(C)C)c3c(CO)c[nH]c13)C(=O)c1ccccc1C2=O,34.7 µM,> 37.6 µM,> 37.5 µM,5.73 µM,6.83 µM,25.1 µM,12.8 µM,4.67 µM,7.57 µM,> 76.2 µM,18.1 µM,3.41 µM,2.74 µM,1.03 µM,2.4 µM,3.91 µM,2.17 µM,1.81 µM,1.87 µM,9.85 µM
CN1N=Nc2c(C(F)(F)F)nn(-c3ccccc3)c2N(C)C1=O,> 100 µM,> 100 µM,> 70.4 µM,> 100 µM,> 100 µM,> 100 µM,> 100 µM,> 100 µM,> 100 µM,> 100 µM,> 100 µM,> 100 µM,> 47.9 µM,> 100 µM,> 100 µM,> 100 µM,> 56 µM,> 100 µM,> 100 µM,> 100 µM
CC(C)N(Cc1ccccc1)S(=O)(=O)c1n[nH]c(C(C)(C)C)n1,> 100 µM,> 100 µM,> 100 µM,> 100 µM,> 100 µM,> 100 µM,> 100 µM,> 100 µM,> 100 µM,> 100 µM,,,,,,,,,,
Cc1ccc(S(=O)(=O)c2ccsc2N)cc1,> 100 µM,> 100 µM,> 100 µM,> 100 µM,> 100 µM,> 100 µM,> 100 µM,> 100 µM,> 100 µM,> 100 µM,40.7 µM,> 100 µM,> 100 µM,> 100 µM,> 100 µM,56.1 µM,95.4 µM,66 µM,> 100 µM,> 100 µM
C/C=C/C(=O)[O-].N.N.N.N.N.[Co+3].[O-][Cl+3]([O-])([O-])[O-],> 100 µM,> 100 µM,> 100 µM,> 100 µM,> 100 µM,> 100 µM,> 100 µM,> 100 µM,> 100 µM,> 100 µM,> 100 µM,> 100 µM,> 100 µM,> 100 µM,> 100 µM,> 100 µM,> 100 µM,> 100 µM,> 100 µM,> 100 µM
N#C/C(=C\c1cccnc1)c1nc2ccccc2o1,> 100 µM,> 100 µM,> 100 µM,> 100 µM,> 100 µM,> 100 µM,> 100 µM,> 100 µM,> 100 µM,> 100 µM,66.4 µM,> 100 µM,> 100 µM,> 100 µM,21.8 µM,> 100 µM,> 100 µM,> 100 µM,> 100 µM,> 100 µM
O=C1NC(O)CCN1C1CC(O)C(CO)O1 (centres undefined),> 100 µM,> 100 µM,> 100 µM,> 100 µM,> 100 µM,> 100 µM,> 100 µM,> 100 µM,> 100 µM,> 100 µM,,,,,,,,,,
CN/N=C(\C(=O)Nc1ccc([N+](=O)[O-])cc1[N+](=O)[O-])C1NC(=O)NC1=O (centres undefined),> 100 µM,> 100 µM,> 100 µM,> 100 µM,> 100 µM,> 100 µM,> 100 µM,> 100 µM,> 100 µM,> 100 µM,,,,,,,,,,
COc1cc(/C=C\c2cc(OC)c(OC)c(OC)c2)cc(NS(=O)(=O)c2cccc(Cl)c2)c1OC,0.0798 µM,> 100 µM,0.851 µM,> 100 µM,> 100 µM,> 100 µM,> 100 µM,0.519 µM,> 100 µM,> 100 µM,0.0218 µM,0.264 µM,0.261 µM,0.0437 µM,20 µM,0.0346 µM,0.0597 µM,0.229 µM,0.0438 µM,20.3 µM
CC(C)(F)C[C@H](N[C@@H](c1ccc(-c2ccc(S(C)(=O)=O)cc2)cc1)C(F)(F)F)C(=O)NC1(C#N)CC1,55 µM and > 100 µM,> 100 µM,> 100 µM,> 100 µM,55 µM and 62 µM,> 55 µM and 47.9 µM,> 100 µM,> 100 µM,> 100 µM,> 100 µM,33.6 µM and 28 µM,> 55 µM and 41.8 µM,> 100 µM,> 100 µM,17.5 µM and 22.2 µM,> 55 µM and 19.9 µM,> 100 µM,> 55 µM and 73.1 µM,> 100 µM,> 55 µM and 61.8 µM
S=c1[nH]nc(SCc2ccccc2Cl)c2[nH]cnc12,> 100 µM,> 100 µM,> 100 µM,> 100 µM,> 100 µM,> 100 µM,> 100 µM,> 100 µM,> 100 µM,> 100 µM,,,,,,,,,,
O=C(O)c1oc2cccc3c2c1CCC3,> 100 µM,> 100 µM,> 100 µM,> 100 µM,> 100 µM,> 100 µM,> 100 µM,> 100 µM,> 100 µM,> 100 µM,,,,,,,,,,
C#CCOc1cccc(Nc2ncc3ncn(C4CCN(C(=O)CCl)C4)c3n2)c1 (centres undefined),> 62.5 µM,> 62.5 µM,> 62.5 µM,> 62.5 µM,56.2 µM,> 62.5 µM,> 62.5 µM,> 62.5 µM,> 62.5 µM,> 62.5 µM,> 62.5 µM,> 62.5 µM,> 62.5 µM,> 62.5 µM,8.78 µM,37.8 µM,> 62.5 µM,> 62.5 µM,15.4 µM,> 62.5 µM
C[C@H]1CCC/C=C/[C@@H]2C[C@H](O)C[C@H]2[C@H](O)[C@@H](SC2OC(CO)C(O)C(O)C2O)CC(=O)O1 (some centres undefined),63.8 µM,> 100 µM,41.6 µM,68 µM,69.4 µM,> 100 µM,> 100 µM,30 µM,> 100 µM,> 100 µM,20.7 µM,> 100 µM,19.4 µM,30.3 µM,27.6 µM,> 100 µM,> 100 µM,16.2 µM,> 100 µM,44.5 µM
Cc1c(N)nc(C(CC(N)=O)NCC(N)C(N)=O)nc1C(=O)NC(C(=O)NC(C)C(O)C(C)C(=O)NC(C(=O)NCCc1nc(-c2nc(C(=O)NCCCNCCCCN)cs2)cs1)C(C)O)C(OC1OC(CO)C(O)C(O)C1OC1OC(CO)C(O)C(OC(N)=O)C1O)c1cnc[nH]1 (centres undefined),> 10 µM,> 10 µM,> 10 µM,> 10 µM,> 10 µM,,> 10 µM,15.9 µg/mL and > 10 µM,> 10 µM,> 10 µM,18.5 µg/mL,2.69 µg/mL and 1.06 µg/mL,8.7 µg/mL and 4.7 µg/mL,40 µg/mL,,7.69 µg/mL,13.3 µg/mL,1.05 µg/mL and 0.164 µg/mL,25.2 µg/mL,86.1 µg/mL
Cc1cccc(O)c(=O)c1,> 100 µM,> 100 µM,37.8 µM,> 100 µM,> 100 µM,> 100 µM,92.6 µM,> 100 µM,> 100 µM,> 100 µM,,,,,,,,,,
O=C(Nc1ccccc1C(=O)Nc1nccs1)c1ccccc1,> 100 µM,> 100 µM,> 100 µM,> 100 µM,> 100 µM,36.6 µM,> 100 µM,67.3 µM,> 100 µM,> 100 µM,,,,,,,,,,
Cc1[nH]n(-c2ccccc2)c(=O)c1C(=O)c1ccccc1,> 25 µM,> 25 µM,> 25 µM,> 25 µM,> 25 µM,> 25 µM,> 25 µM,> 25 µM,> 25 µM,> 25 µM,> 6.04 µM,11.7 µM,> 25 µM,11.7 µM,> 25 µM,> 25 µM,> 25 µM,> 25 µM,> 25 µM,> 25 µM
COc1cc(/C=C/c2cc(/C=C/c3ccc(O)c(OC)c3)[nH]c(=O)n2)ccc1O,25.2 µM,27.6 µM,4.03 µM,14.2 µM,> 100 µM,33.5 µM,5.68 µM,36.1 µM,16.6 µM,17.9 µM,3.11 µM,5.2 µM,2.03 µM,3.44 µM,3.91 µM,3.8 µM,2.1 µM,3.7 µM,3.17 µM,3.36 µM
CC(=O)Nc1cc2cc(NS(=O)(=O)c3cc(C(F)(F)F)cc(C(F)(F)F)c3)ccc2oc1=O,> 100 µM,> 100 µM,> 100 µM,> 100 µM,> 100 µM,> 100 µM,> 100 µM,> 100 µM,> 100 µM,> 100 µM,,,,,,,,,,
CCCCCCCCCCCCCCC(O)C1CCC(C(O)CCC(O)CCCCCC(O)CC2=CC(C)OC2=O)O1 (centres undefined),20.5 µM,13.2 µM,8.41 µM,,13.6 µM,4.76 µM,2.75 µM,2.3 µM,13.9 µM,2.94 µM,,,,,,,,,,
Cc1cc(O)c2c(c1)C(=O)C(c1c(C)cc3c(c1O)C(=O)C1OC1C3=O)=CC2=O (centres undefined),14.3 µM,43.1 µM,,28.8 µM,3.96 µM,5.87 µM,3.52 µM,19.7 µM,7.54 µM,11.3 µM,,,,,,,,,,
CCOC(=O)NC(=O)c1cn(C2OC(CO)C(O)C2O)c(=O)[nH]c1=O (centres undefined),> 100 µM,> 100 µM,,> 100 µM,> 100 µM,> 100 µM,> 100 µM,> 100 µM,> 100 µM,> 100 µM,,,,,,,,,,
